Read-outs that look alike come from different tables or passages of the source. Residues, ends and D or L forms follow the SMILES beside them.
Assays:
[1] = test system: K. pneumonia (ATCC 13884); type: cell-based, Klebsiella pneumoniae
[2] = test system: S. aureus (ATCC 29213); type: cell-based, Staphylococcus aureus
Description: (§1) The antimicrobial activities of HBc ARD peptides were tested using a number of bacterial strains from ATCC, including Pseudomonas aeruginosa Migula strain (ATCC 27853, ampicillin-resistant), Pseudomonas aeruginosa Migula strain (ATCC 9027, ampicillin-resistant), Klebsiella pneumoniae strain (ATCC 17593), Escherichia coli strain (ATCC 25922), Staphylococcus aureus subsp. strain (ATCC 25923, methicillin-resistant), Staphylococcus aureus subsp. strain (ATCC 29213, methicillin-resistant), Staphylococcus aureus subsp. strain (ATCC 19636, methicillinresistant), and Candida albicans strain (ATCC 10231).
(§2) All peptides were purchased from Yao-Hong Biotechnology Inc. (Taipei, Taiwan). Vendors provided data of peptide characterizations, including HPLC and Mass (data not shown). Antimicrobial activity was determined as described with some modifications as detailed below. Bacteria were grown overnight in Mueller–Hinton broth (Difco) at 37°C, and during the mid-logarithmic phase, bacteria were diluted to 10^6 CFU (colony formation unit)/ml in phosphate buffer (10 mM sodium phosphate and 50 mM sodium chloride, pH 7.2). Peptides were serially diluted in the same buffer. Fifty microliter (µl) of bacteria was mixed with fifty µl of peptides at varying concentrations followed by incubation at 37°C for 3 hours without shaking. At the end of incubation, bacteria were placed on Mueller-Hinton broth agar plates, and allowed growth at 37°C overnight for measurement of minimal bactericidal concentration (MBC). […] All peptides were tested in triplicate.

[3] = test system: S. aureus (ATCC 25923); type: cell-based, Staphylococcus aureus
Description: as §1, §2

[4] = test system: S. aureus (ATCC 19636); type: cell-based, Staphylococcus aureus
Description: as §1, §2

[5] = test system: P. aeruginosa (ATCC 27853); type: cell-based, Pseudomonas aeruginosa
Description: as §1, §2

[6] = test system: P. aeruginosa (ATCC 9027); type: cell-based, Pseudomonas aeruginosa
Description: as §1, §2

[7] = test system: tested bacteria and fungi; type: cell-based; details: summary over the tested bacteria of Table 1
Description: as §1, §2

[8] = test system: E. coli (ATCC 25922); type: cell-based, Escherichia coli
Description: as §1, §2

[9] = 3 h at 37°C in phosphate buffer pH 7.2, triplicate
[10] = methicillin-resistant strain, 3 h at 37°C in phosphate buffer pH 7.2, triplicate
[11] = ampicillin-resistant strain, 3 h at 37°C in phosphate buffer pH 7.2, triplicate

CC(C)[C@H](NC(=O)[C@@H](NC(=O)[C@@H](N)[C@@H](C)O)C(C)C)C(=O)N[C@@H](CCCNC(=N)N)C(=O)N[C@@H](CCCNC(=N)N)C(=O)N[C@@H](CCCNC(=N)N)C(=O)NCC(=O)N[C@@H](CCCNC(=N)N)C(=O)N[C@@H](CO)C(=O)N1CCC[C@H]1C(=O)N[C@@H](CCCNC(=N)N)C(=O)N[C@@H](CCCNC(=N)N)C(=O)N[C@@H](CCCNC(=N)N)C(=O)N[C@H](C(=O)N1CCC[C@H]1C(=O)N[C@@H](CO)C(=O)N1CCC[C@H]1C(=O)N[C@@H](CCCNC(=N)N)C(=O)N[C@@H](C)C(=O)N[C@@H](C)C(=O)N[C@@H](CCCNC(=N)N)C(=O)N[C@@H](CO)C(=O)N[C@@H](CCC(N)=O)C(=O)N[C@@H](CO)C(=O)N1CCC[C@H]1C(=O)N[C@@H](CCCNC(=N)N)C(=O)N[C@@H](C)C(=O)N[C@@H](C)C(=O)N[C@@H](CCCNC(=N)N)C(=O)N[C@@H](CO)C(=O)N[C@@H](CCC(N)=O)C(=O)N[C@@H](CO)C(=O)N[C@@H](CCCNC(=N)N)C(=O)N[C@@H](CCC(=O)O)C(=O)N[C@@H](CO)C(=O)N[C@@H](CCC(N)=O)C(=O)N[C@@H](CS)C(=O)O)[C@@H](C)O [HBc147-183(34AA)] (H-TVVRRRGRSPRRRTPSPRAARSQSPRAARSQSRESQC-OH; N-terminus and C-terminus assumed)
Antimicrobial activity, MBC [1, 9]: 135.94 µg/mL | Antimicrobial activity, MBC ([1]; ATCC 13884, 3 h, pH 7.2): 32 µM | Antimicrobial activity, MBC ([2]; ATCC 29213, 3 h, pH 7.2): > 32 µM | Antimicrobial activity, MBC [2, 10]: > 135.94 µg/mL | Antimicrobial activity, MBC ([3]; ATCC 25923, 3 h, pH 7.2): > 32 µM | Antimicrobial activity, MBC [3, 10]: > 135.94 µg/mL | Antimicrobial activity, MBC ([4]; ATCC 19636, 3 h, pH 7.2): > 32 µM | Antimicrobial activity, MBC [4, 10]: > 135.94 µg/mL | Antimicrobial activity, MBC ([5]; ATCC 27853, 3 h, pH 7.2): 32 µM | Antimicrobial activity, MBC [5, 11]: 135.94 µg/mL | Antimicrobial activity, MBC ([6]; ATCC 9027, 3 h, pH 7.2): 32 µM | Antimicrobial activity, MBC [6, 11]: 135.94 µg/mL | MBC for bacteria [7]: significantly increased | Antimicrobial activity, MBC [8, 9]: > 135.94 µg/mL | Antimicrobial activity, MBC ([8]; ATCC 25922, 3 h, pH 7.2): > 32 µM
